System: Male Wistar rats
Test: p-PCA-induced ejaculation in anesthetized rats (ejaculation-delaying effect)
Format: in vivo, rat
Conditions: for Ratio: Number of responding animals/total animal number: 50 mg/kg oral in 1% HPMC, p-PCA 5 mg/kg i.p. 80 min later, observed 30 min; for Latency: Time to display the ejaculatory response: 50 mg/kg oral, p-PCA 5 mg/kg i.p., mean ± standard deviation of responding rats
Description: The compounds prepared in the above examples were evaluated to determine whether they have an effect of delaying ejaculation. The evaluation was carried out using an animal model according to a method described in Yonezawa et al., Life Sci. 2000, 67(25) p 3031-9. Male Wistar rats weighing 240-260 g were used. Each compound was suspended in 1% HPMC, and then administered orally to each animal. After 60 min, the animals were anesthetized and fixed. 20 min later, para-chloroamphetamine (p-PCA) was intraperitoneally administered in a dose of 5 mg/kg in order to induce ejaculation. […] An ejaculatory response was considered to be elicited when rhythmic contraction of bulbocavernosus muscles and semen discharge occurs. Six or more animals were used for each compound. A Fisher's […] test was performed for the comparison of the proportion of responding rats (ejaculated rats) to determine significance of difference between a treatment group and a vehicle control. The time to reach ejaculation was expressed as mean±standard deviation.
Each test compound was administered at a dose of 50 mg/kg. Ejaculation was elicited in all seven animals of a control group.

Compound	Ratio: Number of responding animals/total animal number	Latency: Time to display the ejaculatory response [s]
COc1ccc(C2(CCCN(C)C)OCc3cc(C#N)ccc32)cc1 (stereo not drawn) [Ex. 1, 1-(4-methoxyphenyl)-1-{3-(dimethylamino)propyl}-1,3-dihydro-5-isobenzofurancarbonitrile]	5/9	1024 ± 256
COc1ccc(C2(CCCN(C)C)OCc3cc(C#N)ccc32)cc1.Cl (stereo not drawn) [Ex. 3, 1-{3-(dimethylamino)propyl}-1-(4-methoxyphenyl)-1,3-dihydro-5-isobenzofurancarbonitrile hydrochloride]	1/6	1234
COc1ccc(C2(CCCn3ccnc3)OCc3cc(C#N)ccc32)cc1 (stereo not drawn) [Ex. 4, 1-{3-(imidazole-1-yl)propyl}-1-(4-methoxyphenyl)-1,3-dihydro-5-isobenzofurancarbonitrile]	4/9	1300 ± 124
COc1ccc(C2(CCCn3ccnc3)OCc3cc(C#N)ccc32)cc1.Cl (stereo not drawn) [Ex. 5, 1-{13-(imidazole-1-yl)propyl}-1-(4-methoxyphenyl)-1,3-dihydro-5-isobenzofurancarbonitrile hydrochloride]	3/7	986 ± 342
COc1ccc(C2(CCn3ccnc3)OCc3cc(C#N)ccc32)cc1 (stereo not drawn) [Ex. 6, 1-{2-(imidazole-1-yl)ethyl}-1-(4-methoxyphenyl)-1,3-dihydro-5-isobenzofurancarbonitrile]	4/7	889 ± 284
COc1ccc(C2(CCn3ccnc3)OCc3cc(C#N)ccc32)cc1.Cl (stereo not drawn) [Ex. 7, 1-{2-(imidazole-1-yl)ethyl}-1-(4-methoxyphenyl)-1,3-dihydro-5-isobenzofurancarbonitrile hydrochloride]	5/9	963 ± 304
COc1ccc(C2(CCCn3cccn3)OCc3cc(C#N)ccc32)cc1 (stereo not drawn) [Ex. 8, 1-(4-methoxyphenyl)-1-{3-(pyrazole-1-yl)propyl}-1,3-dihydro-5-isobenzofurancarbonitrile]	4/9	1230 ± 421
COc1ccc(C2(CCCn3cccn3)OCc3cc(C#N)ccc32)cc1.Cl (stereo not drawn) [Ex. 9, 1-(4-methoxyphenyl)-1-{3-(pyrazole-1-yl)propyl}-1,3-dihydro-5-isobenzofurancarbonitrile hydrochloride]	4/7	950 ± 245
COc1ccc(C2(CCn3cccn3)OCc3cc(C#N)ccc32)cc1 (stereo not drawn) [Ex. 10, 1-(4-methoxyphenyl)-1-{2-(pyrazole-1-yl)ethyl}-1,3-dihydro-5-isobenzofurancarbonitrile]	4/9	889 ± 360
COc1ccc(C2(CCn3cccn3)OCc3cc(C#N)ccc32)cc1.Cl (stereo not drawn) [Ex. 11, 1-(4-methoxyphenyl)-1-{2-(pyrazole-1-yl)ethyl}-1,3-dihydro-5-isobenzofurancarbonitrile hydrochloride]	3/7	974 ± 289
CN(C)CCCC1(c2ccccc2)OCc2cc(C#N)ccc21 (stereo not drawn) [Ex. 12, 1-{3-(dimethylamino)propyl}-1-phenyl-1,3-dihydro-5-isobenzofurancarbonitrile]	4/9	1025 ± 189
CN(C)CCCC1(c2ccccc2)OCc2cc(C#N)ccc21.Cl (stereo not drawn) [Ex. 13, 1-{3-(dimethylamino)propyl}-1-phenyl-1,3-dihydro-5-isobenzofurancarbonitrile hydrochloride]	1/6	327
CN(C)CCC1(c2ccccc2)OCc2cc(C#N)ccc21 (stereo not drawn) [Ex. 14, 1-{2-(dimethylamino)ethyl}-1-phenyl-1,3-dihydro-5-isobenzofurancarbonitrile]	3/7	1032 ± 451
CN(C)CCC1(c2ccccc2)OCc2cc(C#N)ccc21.Cl (stereo not drawn) [Ex. 15, 1-{2-(dimethylamino)ethyl}-1-phenyl-1,3-dihydro-5-isobenzofurancarbonitrile hydrochloride]	4/9	1345 ± 510
N#Cc1ccc2c(c1)COC2(CCCn1ccnc1)c1ccccc1 (stereo not drawn) [Ex. 16, 1-{3-(imidazole-1-yl)propyl}-1-phenyl-1,3-dihydro-5-isobenzofurancarbonitrile]	4/9	856 ± 365
Cl.N#Cc1ccc2c(c1)COC2(CCCn1ccnc1)c1ccccc1 (stereo not drawn) [Ex. 17, 1-{3-(imidazole-1-yl)propyl}-1-phenyl-1,3-dihydro-5-isobenzofurancarbonitrile hydrochloride]	3/6	949 ± 330
N#Cc1ccc2c(c1)COC2(CCn1ccnc1)c1ccccc1 (stereo not drawn) [Ex. 18, 1-{2-(imidazole-1-yl)ethyl}-1-phenyl-1,3-dihydro-5-isobenzofurancarbonitrile]	3/7	691 ± 361
Cl.N#Cc1ccc2c(c1)COC2(CCn1ccnc1)c1ccccc1 (stereo not drawn) [Ex. 19, 1-{2-(imidazole-1-yl)ethyl}-1-phenyl-1,3-dihydro-5-isobenzofurancarbonitrile hydrochloride]	5/9	954 ± 275
N#Cc1ccc2c(c1)COC2(CCn1cccn1)c1ccccc1 (stereo not drawn) [Ex. 20, 1-phenyl-1-{2-(pyrazole-1-yl)ethyl}-1,3-dihydro-5-isobenzofurancarbonitrile]	3/7	978 ± 378
Cl.N#Cc1ccc2c(c1)COC2(CCn1cccn1)c1ccccc1 (stereo not drawn) [Ex. 21, 1-phenyl-1-{2-(pyrazole-1-yl)ethyl}-1,3-dihydro-5-isobenzofurancarbonitrile hydrochloride]	4/7	799 ± 387
Cc1ccc(C2(CCCN(C)C)OCc3cc(C#N)ccc32)cc1 (stereo not drawn) [Ex. 22, 1-{3-(dimethylamino)propyl}-1-(4-tolyl)-1,3-dihydro-5-isobenzofurancarbonitrile]	3/7	830 ± 287
Cc1ccc(C2(CCCN(C)C)OCc3cc(C#N)ccc32)cc1.Cl (stereo not drawn) [Ex. 23, 1-{3-(dimethylamino)propyl}-1-(4-tolyl)-1,3-dihydro-5-isobenzofurancarbonitrile hydrochloride]	4/7	967 ± 274
Cc1ccc(C2(CCN(C)C)OCc3cc(C#N)ccc32)cc1 (stereo not drawn) [Ex. 24, 1-{2-(dimethylamino)ethyl}-1-(4-tolyl)-1,3-dihydro-5-isobenzofurancarbonitrile]	3/7	1021 ± 367
Cc1ccc(C2(CCN(C)C)OCc3cc(C#N)ccc32)cc1.Cl (stereo not drawn) [Ex. 25, 1-{2-(dimethylamino)ethyl}-1-(4-tolyl)-1,3-dihydro-5-isobenzofurancarbonitrile hydrochloride]	4/9	841 ± 254
Cc1ccc(C2(CCCn3ccnc3)OCc3cc(C#N)ccc32)cc1 (stereo not drawn) [Ex. 26, 1-{3-(imidazole-1-yl)propyl}-1-(4-tolyl)-1,3-dihydro-5-isobenzofurancarbonitrile]	4/7	904 ± 304
Cc1ccc(C2(CCCn3ccnc3)OCc3cc(C#N)ccc32)cc1.Cl (stereo not drawn) [Ex. 27, 1-{3-(imidazole-1-yl)propyl}-1-(4-tolyl)-1,3-dihydro-5-isobenzofurancarbonitrile hydrochloride]	3/7	864 ± 257
Cc1ccc(C2(CCn3ccnc3)OCc3cc(C#N)ccc32)cc1 (stereo not drawn) [Ex. 28, 1-{2-(imidazole-1-yl)ethyl}-1-(4-tolyl)-1,3-dihydro-5-isobenzofurancarbonitrile]	3/7	734 ± 451
Cc1ccc(C2(CCn3ccnc3)OCc3cc(C#N)ccc32)cc1.Cl (stereo not drawn) [Ex. 29, 1-{2-(imidazole-1-yl)ethyl}-1-(4-tolyl)-1,3-dihydro-5-isobenzofurancarbonitrile hydrochloride]	5/9	1054 ± 287
Cc1ccc(C2(CCCn3cccn3)OCc3cc(C#N)ccc32)cc1 (stereo not drawn) [Ex. 30, 1-{3-(pyrazole-1-yl)propyl}-1-(4-tolyl)-1,3-dihydro-5-isobenzofurancarbonitrile]	3/7	876 ± 300
Cc1ccc(C2(CCCn3cccn3)OCc3cc(C#N)ccc32)cc1.Cl (stereo not drawn) [Ex. 31, 1-{3-(pyrazole-1-yl)propyl}-1-(4-tolyl)-1,3-dihydro-5-isobenzofurancarbonitrile hydrochloride]	3/9	754 ± 401
